Results taken from ChEMBL document CHEMBL1145647, “Phenylcyclobutyl triazoles as selective inhibitors of 11beta-hydroxysteroid dehydrogenase type I” (Bioorg Med Chem Lett, 2008).

Experiments:
[1] = target: 11-beta-hydroxysteroid dehydrogenase 1 (Homo sapiens, UniProt P28845); test: Inhibition of human 11-beta-HSD1 by SPA assay
[2] = target: 11-beta-hydroxysteroid dehydrogenase 1 (Mus musculus, UniProt P50172); test: Inhibition of mouse 11-beta-HSD1 by SPA assay
[3] = target: T1, 11-beta-hydroxysteroid dehydrogenase type 2 (Homo sapiens, UniProt P80365); test: Inhibition of human 11-beta-HSD2 by SPA assay
T1 sequence (P80365 whole entry): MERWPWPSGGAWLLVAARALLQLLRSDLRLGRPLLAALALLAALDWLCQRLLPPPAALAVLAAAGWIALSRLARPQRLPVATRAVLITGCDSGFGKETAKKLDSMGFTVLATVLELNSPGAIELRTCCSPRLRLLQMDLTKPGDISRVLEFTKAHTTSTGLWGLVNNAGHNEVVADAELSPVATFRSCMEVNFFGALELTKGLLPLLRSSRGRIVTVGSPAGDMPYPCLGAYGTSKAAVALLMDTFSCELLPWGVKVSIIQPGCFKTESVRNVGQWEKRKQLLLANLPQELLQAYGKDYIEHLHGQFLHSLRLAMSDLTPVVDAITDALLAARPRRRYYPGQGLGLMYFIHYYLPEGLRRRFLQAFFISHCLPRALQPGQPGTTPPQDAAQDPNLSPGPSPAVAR

[4] = target: T2, 11-beta-hydroxysteroid dehydrogenase type 2 (Mus musculus, UniProt P51661); test: Inhibition of mouse 11-beta-HSD2 by SPA assay
T2 sequence (P51661 whole entry): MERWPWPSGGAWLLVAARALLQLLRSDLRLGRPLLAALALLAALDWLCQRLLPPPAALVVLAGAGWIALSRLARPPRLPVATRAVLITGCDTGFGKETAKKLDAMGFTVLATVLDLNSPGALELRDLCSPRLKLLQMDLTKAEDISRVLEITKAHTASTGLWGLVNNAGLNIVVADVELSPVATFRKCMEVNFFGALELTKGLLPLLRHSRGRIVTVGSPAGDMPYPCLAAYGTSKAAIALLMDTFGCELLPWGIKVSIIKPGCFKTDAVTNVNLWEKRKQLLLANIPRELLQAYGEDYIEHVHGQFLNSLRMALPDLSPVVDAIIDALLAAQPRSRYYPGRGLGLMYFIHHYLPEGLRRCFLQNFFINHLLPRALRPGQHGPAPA

Mus musculus [5] = test: Inhibition of 11-beta-HSD1 in mouse pharmacodynamic model assessed as inhibition of [3H]cortisone to [3H]cortisol at 10 mg/kg, po after 1 hr; assay type: functional
Mus musculus [6] = test: Inhibition of 11-beta-HSD1 in mouse pharmacodynamic model assessed as inhibition of [3H]cortisone to [3H]cortisol at 10 mg/kg, po after 4 hrs; assay type: functional
[7] = Plasma concentration in C57B6 mouse at 10 mg/kg; assay type: ADME, organism-based; set-up: dose 10 mg/kg
[8] = Half life in C57B6 mouse at 10 mg/kg; assay type: ADME, organism-based; set-up: dose 10 mg/kg; details: in vivo
[9] = Oral bioavailability in C57B6 mouse at 10 mg/kg; assay type: ADME, organism-based; details: in vivo

11-beta-hydroxysteroid dehydrogenase 1 (Mus musculus, UniProt P50172), sequence (P50172 whole entry): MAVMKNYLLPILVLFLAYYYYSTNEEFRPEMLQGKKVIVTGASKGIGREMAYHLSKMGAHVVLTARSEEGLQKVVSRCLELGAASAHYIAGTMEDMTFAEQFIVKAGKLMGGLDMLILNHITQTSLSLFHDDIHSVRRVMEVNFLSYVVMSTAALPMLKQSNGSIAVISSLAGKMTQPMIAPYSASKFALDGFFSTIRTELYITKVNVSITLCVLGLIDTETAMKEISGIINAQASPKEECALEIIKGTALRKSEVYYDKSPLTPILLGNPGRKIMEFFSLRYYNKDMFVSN
11-beta-hydroxysteroid dehydrogenase 1 (Homo sapiens, UniProt P28845), sequence (P28845 whole entry): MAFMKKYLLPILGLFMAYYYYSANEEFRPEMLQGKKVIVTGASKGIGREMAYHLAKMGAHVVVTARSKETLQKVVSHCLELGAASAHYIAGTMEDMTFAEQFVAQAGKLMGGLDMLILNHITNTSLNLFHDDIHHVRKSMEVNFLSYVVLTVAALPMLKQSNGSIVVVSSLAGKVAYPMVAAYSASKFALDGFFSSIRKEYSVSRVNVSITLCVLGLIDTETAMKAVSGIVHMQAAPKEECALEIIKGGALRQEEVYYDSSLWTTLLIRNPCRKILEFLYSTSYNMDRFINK

SMILES | IC50 [1] [nM] | IC50 [2] [nM] | IC50 [3] [nM] | IC50 [4] [nM] | inhibition in vivo at 10 mg/kg (Mus musculus [5]) [%] | inhibition in vivo at 10 mg/kg (Mus musculus [6]) [%] | clearance [7] [mL/min/kg] | half-life [8] [h] | bioavailability [9] [%]
F[C@H]1C[C@@](c2ccc(Cl)cc2)(c2nnc(C3CC3)n2C2CC2)C1 | 22 | 38 | > 4000 | > 4000 | – | – | – | – | –
FC1(F)CC(c2ccc(Cl)cc2)(c2nnc(C3CC3)n2C2CC2)C1 | 35 | 107 | > 4000 | > 4000 | – | – | – | – | –
Fc1cccc(C2(c3nnc4n3CCCCCC4)CCC2)c1 | 2 | 19 | 4000 | > 4000 | 87 | 68 | – | – | –
C1C2CC3CC1CC(c1nnc(C4CC4)n1C1CC1)(C2)C3 | – | – | – | – | – | 74 | – | – | –
Cc1cccc(C2(c3nnc4n3CCCCCC4)CCCC2)c1 | 10 | 57 | 1960 | > 4000 | 20 | 22 | – | – | –
Clc1ccc(C2(c3nnc4n3CCCCCC4)CCCC2)cc1 | 2 | 41 | – | – | – | – | – | – | –
Cc1ccc(C2(c3nnc4n3CCCCCC4)CCCCC2)cc1 | 15 | 374 | – | > 4000 | – | – | – | – | –
Fc1ccccc1C1(c2nnc3n2CCCCCC3)CCCC1 | 1 | 27 | 1270 | > 4000 | 57 | 18 | – | – | –
Clc1ccc(C2(c3nnc4n3CCCCCC4)CCCCC2)cc1 | 32 | 454 | – | > 4000 | – | – | – | – | –
Fc1ccc(C2(c3nnc4n3CCCCCC4)CCC2)cc1 | 3 | 37 | > 4000 | > 4000 | 68 | 55 | – | – | –
Cc1ccc(C2(c3nnc4n3CCCCCC4)CCCC2)cc1 | 2 | 25 | – | > 4000 | 35 | 3 | – | – | –
c1ccc(C2(c3nnc4n3CCCCCC4)CCCCC2)cc1 | 13 | 100 | 1040 | > 4000 | 25 | 0 | – | – | –
Fc1ccccc1C1(c2nnc3n2CCCCCC3)CCC1 | 1 | 16 | < 4000 | > 4000 | 90 | 53 | – | – | –
C1CCc2nnc(C34CC5CC(CC(C5)C3)C4)n2CC1 | 7.8 | 98 | > 3000 | > 10000 | 59 | 17 | – | – | –
C1CCCn2c(nnc2C23CC4CC(CC(C4)C2)C3)CC1 | – | – | – | – | – | 24 | – | – | –
Cc1cccc(C2(c3nnc4n3CCCCCC4)CCC2)c1 | 2 | 52 | > 4000 | > 4000 | 17 | 22 | – | – | –

SMILES | IC50 [1] [nM] | IC50 [2] [nM] | IC50 [3] [nM] | IC50 [4] [nM] | inhibition in vivo at 10 mg/kg (Mus musculus [5]) [%] | inhibition in vivo at 10 mg/kg (Mus musculus [6]) [%] | clearance [7] [mL/min/kg] | half-life [8] [h] | bioavailability [9] [%]
Clc1ccc(C2(c3nnc4n3CCCCCC4)CCC2)cc1 | 1 | 14 | – | – | 91 | 77 | – | – | –
Oc1cccc(C2(c3nnc4n3CCCCCC4)CCCC2)c1 | 43 | 61 | > 4000 | > 4000 | 3 | 21 | – | – | –
Clc1ccc(C2(c3nnc4n3CCCCCC4)CC2)cc1 | 2 | 230 | > 4000 | > 4000 | – | – | – | – | –
Cc1ccc(C2(c3nnc4n3CCCCCC4)CC2)cc1 | 1 | 332 | > 4000 | > 4000 | – | – | – | – | –
FC(F)(F)c1ccccc1C1(c2nnc3n2CCCCCC3)CCC1 | 5 | 355 | > 4000 | > 4000 | – | – | – | – | –
c1ccc(C2(c3nnc4n3CCCCCC4)CCCC2)cc1 | 2 | 12 | 1040 | > 4000 | 73 | 37 | – | – | –
Fc1ccc(C2(c3nnc4n3CCCCCC4)CCCCC2)cc1 | 27 | 494 | 1170 | > 4000 | – | – | – | – | –
c1ccc(C2(c3nnc4n3CCCCCC4)CCC2)cc1 | 1 | 8 | 4000 | > 4000 | 88 | 72 | – | – | –
Fc1ccc(C2(c3nnc4n3CCCCCC4)CCCC2)cc1 | 8 | 18 | > 4000 | > 4000 | 58 | 30 | – | – | –
c1ccc(C2(c3nnc4n3CCCCCC4)CC2)cc1 | 8 | 172 | > 4000 | > 4000 | 63 | 45 | – | – | –
FC(F)(F)c1ccc(C2(c3nnc4n3CCCCCC4)CCC2)cc1 | 2 | 115 | > 4000 | > 4000 | – | – | – | – | –
Clc1ccc(C2(c3nnc4n3CCCCCC4)CC2)c(Cl)c1 | 2 | 199 | 1960 | > 4000 | – | – | – | – | –
F[C@H]1C[C@](c2ccc(Cl)cc2)(c2nnc(C3CC3)n2C2CC2)C1 | 5 | 16 | > 4000 | > 4000 | 92 | 91 | 10.7 | 1.5 | 100
Cc1ccc(C2(c3nnc4n3CCCCCC4)CCC2)cc1 | 2 | 19 | 2010 | > 4000 | 48 | 28 | – | – | –
Cc1ccccc1C1(c2nnc3n2CCCCCC3)CCC1 | 1 | 78 | 3320 | > 4000 | 23 | 21 | – | – | –
